Patent US20220153732A1, “PROTEIN SECRETION INHIBITORS” (KEZAR LIFE SCIENCES, priority 2019, published 2022)

Legend:
Type in all cases: cell-based
[1] = system: PD1-ss+10aa/Gaussia Luciferase; assay: Dox-Induced PD1-ss-Gluc Assay; conditions: 24 hr, doxycycline-induced, 293FRT/TO cells; read-out: 24 hr Dox Inducible PD1ssGluc 293FRT/TO: Mean IC50
In short: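 Stable cell line carrying PD1-ss+10aa/Gaussia luciferase cDNA under T-REx (doxycycline-inducible) control, plated the day before assay. Compound dilutions in DMSO/media containing doxycycline added and incubated at 37° C, 5% CO2. Undefined stereocentres: data refer to stereoisomer mixtures.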

[2] = system: TNFα-FL/Gaussia Luciferase; assay: Dox Induced TNFα-FL-Gluc Assay; conditions: 24 hr, doxycycline-induced, 293FRT/TO cells; read-out: 24 hr Dox Inducible TNFaFLGluc 293FRT/TO: Mean IC50
In short: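 A stable T-REx cell line carrying doxycycline-inducible TNFα-FL/Gaussia luciferase was plated the day before assay. Compound dilutions in DMSO/media containing doxycycline were then added and incubated at 37° C, 5% CO2.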

[3] = system: HER3-ss+4aa/Gaussia Luciferase; assay: Dox-Induced Her3-ss-Gluc Assay; conditions: 24 hr, doxycycline-induced, 293FRT/TO cells; read-out: 24 hr Dox Inducible Her3(ss + 4)Gluc 293FRT/TO: Mean IC50
In short: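 Stable T-REx cell line carrying a doxycycline-regulated HER3-ss+4aa/Gaussia luciferase insert, plated the day before assay. Compound dilutions in DMSO/media with doxycycline added, then incubated at 37° C., 5% CO2. Stereoisomer mixtures tested where stereochemistry is not drawn.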

[4] = system: IL-2-FL/Gaussia Luciferase; assay: Dox Induced IL2-FL-Gluc Assay; conditions: 24 hr, doxycycline-induced, 293FRT/TO cells; read-out: 24 hr Dox Inducible IL2FLGIuc 293FRT/TO: Mean IC50
In short: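 Stable T-REx cell line expressing doxycycline-inducible IL-2-FL/Gaussia luciferase cDNA, plated the day before assay. Compound dilutions in DMSO/media containing doxycycline added and incubated at 37° C., 5% CO2. Unspecified stereochemistry means data refer to a stereoisomer mixture.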

[5] = system: human multiple myeloma cell line NCI-H929; assay: H929 Cell Viability Assay; conditions: 48 hr, NCI-H929 cells, Celltiter-Glo, read-out: 48 hr H929 Viability Celltiter-Glo: Mean EC50
Procedure: Plates were incubated at 37° C., 5% CO2 for 48 hours. After 48 hours, Celltiter-Glo® (Promega) was added to each well and luciferase signal was quantified using Tecan Infinite M1000 Pro for cell viability determination.
For chemical structures that include one or more stereoisomers, but are illustrated without indicating stereochemistry, the assay data refers to a mixture of stereoisomers.

[6] = system: human multiple myeloma cell line U266B1; assay: U266 Cell Viability Assay; conditions: U-266, 48 hr, U266B1 cells, Celltiter-Glo, read-out: 48 hr U266 Viability Celltiter-Glo: Mean EC50
In short: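 U266B1 myeloma cells treated with compound dilutions in DMSO/media for 48 h at 37 °C, 5% CO2. Viability read by CellTiter-Glo luminescence. Stereochemically undefined structures were tested as stereoisomer mixtures.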

Structure (SMILES) | IC50 [1] | IC50 [2] | IC50 [3] | IC50 [4] | EC50 [5] | EC50 [6]
CCc1nc(NC(=O)c2cccn2Cc2ccccc2)sc1C [Compound B9, 1-benzyl-N-(4-ethyl-5-methylthiazol-2-yl)-1H-pyrrole-2-carboxamide] | 9.43 µM | > 25 µM | > 25 µM | > 25 µM | > 25 µM | > 25 µM
CCc1cc(NC(=O)c2cccn2Cc2ccncc2)ccc1C [Compound B10, N-(3-ethyl-4-methylphenyl)-1-(pyridin-4-ylmethyl)-1H-pyrrole-2-carboxamide] | 11.9 µM | > 25 µM | > 25 µM | > 25 µM | > 25 µM | > 25 µM
CC(C)(C)c1csc(NC(=O)c2cccn2Cc2ccccc2Cl)n1 [Compound B11, N-(4-(tert-butyl)thiazol-2-yl)-1-(2-chlorobenzyl)-1H-pyrrole-2-carboxamide] | 22.7 µM | > 25 µM | 5.57 µM | > 25 µM | > 25 µM | > 25 µM
CC(C)OC(C)(C)c1csc(NC(=O)Cc2ccc(Cc3ccncc3)[nH]2)n1 [Compound B12, N-(4-(2-isopropoxypropan-2-yl)thiazol-2-yl)-2-(5-(pyridin-4-ylmethyl)-1H-pyrrol-2-yl)acetamide] | > 25 µM | > 25 µM | > 25 µM | > 25 µM | > 25 µM | > 25 µM
CN(C(=O)c1cccn1Cc1ccncc1)c1nccs1 [Compound B13] | > 25 µM | > 25 µM | > 25 µM | > 25 µM | > 25 µM | > 25 µM
CCN(C(=O)c1cccn1Cc1ccncc1)c1nccs1 [Compound B14] | > 25 µM | > 25 µM | > 25 µM | > 25 µM | > 25 µM | > 25 µM
N#Cc1cnc(NC(=O)c2cccn2Cc2ccncc2)s1 [Compound B15] | > 25 µM | > 25 µM | > 25 µM | > 25 µM | > 25 µM | > 25 µM
CNC(=O)c1cnc(NC(=O)c2cccn2Cc2ccncc2)s1 [Compound B16] | > 25 µM | > 25 µM | > 25 µM | > 25 µM | > 25 µM | > 25 µM
O=C(Nc1ncc([N+](=O)[O-])s1)c1cccn1Cc1ccncc1 [Compound B17] | > 25 µM | > 25 µM | > 25 µM | > 25 µM | > 25 µM | > 25 µM
NC(=O)Cc1csc(NC(=O)c2cccn2Cc2ccncc2)n1 [Compound B18] | > 25 µM | > 25 µM | > 25 µM | > 25 µM | > 25 µM | > 25 µM
CN(C)Cc1csc(NC(=O)c2cccn2Cc2ccncc2)n1 [Compound B19] | > 25 µM | > 25 µM | > 25 µM | > 25 µM | > 25 µM | > 25 µM
CC(C)c1csc(NC(=O)[C@@H]2CCCN2C(=O)c2ccncc2)n1 [Compound B20, (S)-1-isonicotinoyl-N-(4-isopropylthiazol-2-yl)pyrrolidine-2-carboxamide] | > 25 µM | > 25 µM | > 25 µM | > 25 µM | > 25 µM | > 25 µM
CC(C)c1csc(NC(=O)[C@H]2CCCN2C(=O)c2ccncc2)n1 [Compound B21, (R)-1-isonicotinoyl-N-(4-isopropylthiazol-2-yl)pyrrolidine-2-carboxamide] | > 25 µM | > 25 µM | > 25 µM | > 25 µM | > 25 µM | > 25 µM
CC(=O)NCCc1nc(NC(=O)c2cccn2Cc2ccncc2)sc1C [Compound B22, N-(4-(2-acetamidoethyl)-5-methylthiazol-2-yl)-1-(pyridin-4-ylmethyl)-1H-pyrrole-2-carboxamide] | > 25 µM | > 25 µM | > 25 µM | > 25 µM | > 25 µM | > 25 µM
CC(C)(C)[C@H]1C[C@@H]1NC(=O)c1cccn1Cc1ccncc1 [Compound B23, N-((1S,2R)-2-(tert-butyl)cyclopropyl)-1-(pyridin-4-ylmethyl)-1H-pyrrole-2-carboxamide] | > 25 µM | > 25 µM | > 25 µM | > 25 µM | > 25 µM | > 25 µM
CCc1nc(NC(=O)[C@H]2CCCN2Cc2ccncc2)sc1C [Compound B24] | > 25 µM | > 25 µM | > 25 µM | > 25 µM | > 25 µM | > 25 µM
CCc1cc(N(C)C(=O)c2cccn2Cc2ccncc2)ccc1C [Compound B25, N-(3-ethyl-4-methylphenyl)-N-methyl-1-(pyridin-4-ylmethyl)-1H-pyrrole-2-carboxamide] | > 25 µM | > 25 µM | > 25 µM | > 25 µM | > 25 µM | > 25 µM
CCc1nc(NC(=O)[C@@H]2CCCN2Cc2ccncc2)sc1C [Compound B26, (S)-N-(4-ethyl-5-methylthiazol-2-yl)-1-(pyridin-4-ylmethyl)pyrrolidine-2-carboxamide] | > 25 µM | > 25 µM | > 25 µM | > 25 µM | > 25 µM | > 25 µM
CC(C)(C)c1csc(NC(=O)c2cccn2Cc2ccccc2)n1 [Compound B27, 1-benzyl-N-(4-(tert-butyl)thiazol-2-yl)-1H-pyrrole-2-carboxamide] | > 25 µM | > 25 µM | > 25 µM | > 25 µM | > 25 µM | > 25 µM
